pEC50: −log10 of the molar value.
Key:
ΔF508-CFTR [1] = target: T1, ΔF508-CFTR (Homo sapiens, UniProt P13569, DEL508-508); experiment: CFTR cell surface levels using HRP-tagged ΔF508-CFTR expressing CFBE cells, intrinsic corrector capacity; type: cell-based; parameters: % Activation: concentration or dose not given beside the values; conditions: HRP-tagged ΔF508-CFTR expressing CFBE41o- cells, compound alone (intrinsic corrector capacity), 20 hours at 33° C.; for pEC50: read-out: EC50
T1 construct: host or cells: CFBE41o-, doxycycline-inducible
T1 sequence (P13569 with tags, fused parts or gaps DEL508-508): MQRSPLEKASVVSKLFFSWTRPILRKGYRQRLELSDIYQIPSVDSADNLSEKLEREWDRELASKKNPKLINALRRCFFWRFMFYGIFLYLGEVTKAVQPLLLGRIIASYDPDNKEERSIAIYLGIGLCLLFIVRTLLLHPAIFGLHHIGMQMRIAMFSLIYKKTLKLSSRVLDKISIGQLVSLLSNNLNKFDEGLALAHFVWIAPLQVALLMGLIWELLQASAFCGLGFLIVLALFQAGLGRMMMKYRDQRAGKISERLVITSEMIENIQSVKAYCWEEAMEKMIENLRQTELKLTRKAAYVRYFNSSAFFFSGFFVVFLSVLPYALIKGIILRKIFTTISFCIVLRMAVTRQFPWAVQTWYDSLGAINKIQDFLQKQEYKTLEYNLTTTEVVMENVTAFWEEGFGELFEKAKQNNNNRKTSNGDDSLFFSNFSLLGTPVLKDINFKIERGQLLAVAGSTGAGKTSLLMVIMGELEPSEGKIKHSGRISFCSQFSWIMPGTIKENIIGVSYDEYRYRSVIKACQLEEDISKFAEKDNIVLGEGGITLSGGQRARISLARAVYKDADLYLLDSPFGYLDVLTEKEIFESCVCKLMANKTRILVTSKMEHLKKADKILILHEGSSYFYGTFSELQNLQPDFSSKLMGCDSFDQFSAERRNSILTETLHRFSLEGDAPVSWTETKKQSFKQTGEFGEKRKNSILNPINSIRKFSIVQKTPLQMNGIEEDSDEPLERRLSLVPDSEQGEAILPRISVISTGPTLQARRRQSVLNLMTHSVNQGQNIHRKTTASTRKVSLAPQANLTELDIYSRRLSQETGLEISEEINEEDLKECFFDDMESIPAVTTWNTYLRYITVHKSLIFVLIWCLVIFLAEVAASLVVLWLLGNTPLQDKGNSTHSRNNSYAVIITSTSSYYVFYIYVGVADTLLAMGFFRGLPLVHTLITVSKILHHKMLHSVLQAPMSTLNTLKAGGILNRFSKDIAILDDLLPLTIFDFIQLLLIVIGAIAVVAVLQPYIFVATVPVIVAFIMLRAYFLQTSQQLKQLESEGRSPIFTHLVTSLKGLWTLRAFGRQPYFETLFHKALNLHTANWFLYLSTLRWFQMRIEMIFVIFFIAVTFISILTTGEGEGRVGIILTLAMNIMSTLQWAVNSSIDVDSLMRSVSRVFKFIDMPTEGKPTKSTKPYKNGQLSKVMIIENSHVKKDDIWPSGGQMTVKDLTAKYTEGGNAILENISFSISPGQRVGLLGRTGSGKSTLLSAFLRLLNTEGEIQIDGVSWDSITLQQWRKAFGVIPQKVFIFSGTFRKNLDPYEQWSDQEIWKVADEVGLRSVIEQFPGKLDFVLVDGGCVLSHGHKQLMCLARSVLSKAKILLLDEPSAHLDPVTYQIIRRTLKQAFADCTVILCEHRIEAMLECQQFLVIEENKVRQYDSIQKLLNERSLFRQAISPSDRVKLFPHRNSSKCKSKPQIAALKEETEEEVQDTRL
In short: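 Surface ΔF508-CFTR was measured as HRP chemiluminescence from an extracellular-loop-4 tag, expressed as percent activity between DMSO and a […] corrector control.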

ΔF508-CFTR [2] = target: T1, ΔF508-CFTR; experiment: CFTR cell surface levels using HRP-tagged ΔF508-CFTR expressing CFBE cells, in the presence of a co-corrector; type: cell-based; conditions: HRP-tagged ΔF508-CFTR CFBE cells, in the presence of 3 μM co-corrector; for pEC50: read-out: EC50
In short: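 Chemiluminescent read-out of surface HRP (15 min, dark) after PBS washes. Activity is normalized as 100×(sample−DMSO)/(3 μM co-corrector alone−DMSO).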

Structure (SMILES)	% Activation (ΔF508-CFTR [1])	pEC50 (ΔF508-CFTR [1])	% Activation (ΔF508-CFTR [2])	pEC50 (ΔF508-CFTR [2])
CCS(=O)(=O)NC(=O)c1cc(-c2ccc(N3CCOCC3)cc2)c2c(C)nn(-c3ccc(OC(F)(F)F)cc3)c2n1 [Compound 70, N-(ethanesulfonyl)-3-methyl-4-[4-(morpholin-4-yl)phenyl]-1-[4-(trifluoromethoxy)phenyl]-1H-pyrazolo[3,4-b]pyridine-6-carboxamide]	167.8%	6.21	342.85%	6.39
COc1cccc(-n2nc(C)c3c(-c4ccc(N5CCOCC5)cc4)cc(C(=O)NS(C)(=O)=O)nc32)c1 [Compound 72, N-(methanesulfonyl)-1-(3-methoxyphenyl)-3-methyl-4-[4-(morpholin-4-yl)phenyl]-1H-pyrazolo[3,4-b]pyridine-6-carboxamide]	232.5%	5.65	400.9%	5.25
CCS(=O)(=O)NC(=O)c1cc(-c2ccc(N3CCOCC3)cc2)c2c(C)nn(-c3cccc(OC)c3)c2n1 [Compound 73, N-(ethanesulfonyl)-1-(3-methoxyphenyl)-3-methyl-4-[4-(morpholin-4-yl)phenyl]-1H-pyrazolo[3,4-b]pyridine-6-carboxamide]	254.1%	6.18	423.35%	6.31
COCCN(C)c1cccc(-n2nc(C(C)C)c3c(-c4ccc(N5CCOCC5)cc4)cc(C(=O)NS(C)(=O)=O)nc32)c1 [Compound 76, N-(methanesulfonyl)-1-{3-[(2-methoxyethyl)(methyl)amino]phenyl}-4-[4-(morpholin-4-yl)phenyl]-3-(propan-2-yl)-1H-pyrazolo[3,4-b]pyridine-6-carboxamide]	430.87%	6.28	581.37%	6.20
CC(C)c1nn(-c2cccc(N(C)C)c2)c2nc(C(=O)NS(C)(=O)=O)cc(-c3cnc(N(C)C)nc3)c12 [Compound 77, 1-[3-(dimethylamino)phenyl]-4-[2-(dimethylamino)pyrimidin-5-yl]-N-(methanesulfonyl)-3-(propan-2-yl)-1H-pyrazolo[3,4-b]pyridine-6-carboxamide]	296.45%	6.19	449.85%	6.08
CCS(=O)(=O)NC(=O)c1cc(-c2cnc(N(C)C)nc2)c2c(C(C)C)nn(-c3cccc(N(C)C)c3)c2n1 [Compound 78, 1-[3-(dimethylamino)phenyl]-4-[2-(dimethylamino)pyrimidin-5-yl]-N-(ethanesulfonyl)-3-(propan-2-yl)-1H-pyrazolo[3,4-b]pyridine-6-carboxamide]	333.2%	5.73	520.7%	6.18
CC(=O)Nc1ccc(-c2cc(C(=O)NS(C)(=O)=O)nc3c2c(C(C)C)nn3C2CCCCC2)cc1 [Compound 79, 4-(4-acetamidophenyl)-1-cyclohexyl-N-(methanesulfonyl)-3-(propan-2-yl)-1H-pyrazolo[3,4-b]pyridine-6-carboxamide]	280.9%	5.91	501.6%	6.26
CC(C)c1nn(-c2cccc(N(C)C)c2)c2nc(C(=O)NS(C)(=O)=O)cc(-c3ccc(N4CCC(C#N)CC4)cc3)c12 [Compound 81, 4-[4-(4-cyanopiperidin-1-yl)phenyl]-1-[3-(dimethylamino)phenyl]-N-(methanesulfonyl)-3-(propan-2-yl)-1H-pyrazolo[3,4-b]pyridine-6-carboxamide]	495.8%	6.42	646.44%	6.60
COCCN(C)c1ccc(-c2cc(C(=O)NS(C)(=O)=O)nc3c2c(C(C)C)nn3-c2cccc(N(C)C)c2)cc1 [Compound 82, 1-[3-(dimethylamino)phenyl]-N-(methanesulfonyl)-4-{4-[(2-methoxyethyl)(methyl)amino]phenyl}-3-(propan-2-yl)-1H-pyrazolo[3,4-b]pyridine-6-carboxamide]	366.27%	6.33	535.93%	6.42
CC(C)c1nn(-c2cccc(N(C)C)c2)c2nc(C(=O)NS(C)(=O)=O)cc(-c3ccc(N4CCC(C#N)CC4)nc3)c12 [Compound 83, 4-[6-(4-cyanopiperidin-1-yl)pyridin-3-yl]-1-[3-(dimethylamino)phenyl]-N-(methanesulfonyl)-3-(propan-2-yl)-1H-pyrazolo[3,4-b]pyridine-6-carboxamide]	391.5%	6.26	567.7%	6.37
COCCN(C)c1ccc(-c2cc(C(=O)NS(C)(=O)=O)nc3c2c(C(C)C)nn3-c2cccc(N(C)C)c2)cn1 [Compound 84, 1-[3-(dimethylamino)phenyl]-N-(methanesulfonyl)-4-{6-[(2-methoxyethyl)(methyl)amino]pyridin-3-yl}-3-(propan-2-yl)-1H-pyrazolo[3,4-b]pyridine-6-carboxamide]	311.7%	6.18	468.2%	6.39
COCCN(C)c1ccc(-c2cc(C(=O)NS(C)(=O)=O)nc3c2c(C(C)C)nn3-c2cccc(N3CCOCC3)c2)cc1 [Compound 88, N-(methanesulfonyl)-4-{4-[(2-methoxyethyl)(methyl)amino]phenyl}-1-[3-(morpholin-4-yl)phenyl]-3-(propan-2-yl)-1H-pyrazolo[3,4-b]pyridine-6-carboxamide]	389.73%	6.32	546.2%	6.38
CC(C)c1nn(-c2cccc(N(C)C)c2)c2nc(C(=O)NS(C)(=O)=O)cc(-c3ccc(N(C)C4CCOCC4)nc3)c12 [Compound 89, 1-[3-(dimethylamino)phenyl]-N-(methanesulfonyl)-4-{6-[methyl(oxan-4-yl)amino]pyridin-3-yl}-3-(propan-2-yl)-1H-pyrazolo[3,4-b]pyridine-6-carboxamide]	422.78%	6.19	609.48%	6.40
CCS(=O)(=O)NC(=O)c1cc(-c2ccc(N(C)C3CCOCC3)nc2)c2c(C(C)C)nn(C3CCCCC3)c2n1 [Compound 90, 1-cyclohexyl-N-(ethanesulfonyl)-4-{6-[methyl(oxan-4-yl)amino]pyridin-3-yl}-3-(propan-2-yl)-1H-pyrazolo[3,4-b]pyridine-6-carboxamide]	163.75%	6.31	384.95%	6.41
CCS(=O)(=O)NC(=O)c1cc(-c2ccc(N(C)C)nc2)c2c(C3CC3)nn(C3CCCCC3)c2n1 [Compound 92, 1-cyclohexyl-3-cyclopropyl-4-[6-(dimethylamino)pyridin-3-yl]-N-(ethanesulfonyl)-1H-pyrazolo[3,4-b]pyridine-6-carboxamide]	175.77%	6.26	367.67%	6.56
CC(C)c1nn(C2CCCCC2)c2nc(C(=O)NS(C)(=O)=O)cc(-c3ccc(N4CCOC(C)(C)C4)nc3)c12 [Compound 94, 1-cyclohexyl-4-[6-(2,2-dimethylmorpholin-4-yl)pyridin-3-yl]-N-(methanesulfonyl)-3-(propan-2-yl)-1H-pyrazolo[3,4-b]pyridine-6-carboxamide]	193.5%	6.21	421.53%	6.47
CC(C)c1nn(-c2cccc(N3CCOCC3)c2)c2nc(C(=O)NS(C)(=O)=O)cc(-c3ccc(N(C)C4CCOCC4)cc3)c12 [Compound 97, N-(methanesulfonyl)-4-{4-[methyl(oxan-4-yl)amino]phenyl}-1-[3-(morpholin-4-yl)phenyl]-3-(propan-2-yl)-1H-pyrazolo[3,4-b]pyridine-6-carboxamide]	444.85%	6.40	692.82%	6.56
CC(C)c1nn(C2CCCCC2)c2nc(C(=O)NS(C)(=O)=O)cc(-c3ccc(N4CCC(C)(C#N)CC4)nc3)c12 [Compound 98, 4-[6-(4-cyano-4-methylpiperidin-1-yl)pyridin-3-yl]-1-cyclohexyl-N-(methanesulfonyl)-3-(propan-2-yl)-1H-pyrazolo[3,4-b]pyridine-6-carboxamide]	154%	6.26	360.15%	6.41
CC(C)c1nn(-c2cccc(N3CCOCC3)c2)c2nc(C(=O)NS(C)(=O)=O)cc(-c3cnc(N4CCC(C#N)CC4)nc3)c12 [Compound 99, 4-[2-(4-cyanopiperidin-1-yl)pyrimidin-5-yl]-N-(methanesulfonyl)-1-[3-(morpholin-4-yl)phenyl]-3-(propan-2-yl)-1H-pyrazolo[3,4-b]pyridine-6-carboxamide]	414.8%	6.39	601.15%	6.47
Cc1nn(-c2ccccc2)c2nc(C(=O)NS(C)(=O)=O)cc(-c3ccc(N4CCC(N(C)C)C4)cc3)c12 (stereo not drawn) [Compound 100, 4-{4-[3-(dimethylamino)pyrrolidin-1-yl]phenyl}-N-(methanesulfonyl)-3-methyl-1-phenyl-1H-pyrazolo[3,4-b]pyridine-6-carboxamide]	113%	5.61	340.6%	5.49
Cc1cccc(-n2nc(C(C)C)c3c(N4CCCCC4)cc(C(=O)NS(C)(=O)=O)nc32)c1 [Compound 101, N-(methanesulfonyl)-1-(3-methylphenyl)-4-(piperidin-1-yl)-3-(propan-2-yl)-1H-pyrazolo[3,4-b]pyridine-6-carboxamide]	254.85%	6.08	455.4%	6.39

— patent US10259810B2, “N-sulfonylated pyrazolo[3,4-b]pyridin-6-carboxamides and method of use” (AbbVie S.à.r.l., priority 2015, dated 2019)
